Experimental data published in patent US10988440B2, “FTO inhibitors” (National Institute of Biological Sciences, Beijing, priority 2015, dated 2021).

Biological target: FTO (Homo sapiens, UniProt Q9C0B1)
Assay: demethylation reaction catalyzed by FTO (enzymatic inhibition, HPLC-MS/MS of N6-mA and A)
Format: biochemical
Details: exemplary IC50 data of representative compounds; read-out: Enzymatic inhibition (IC50)

FTO, sequence (Q9C0B1 whole entry): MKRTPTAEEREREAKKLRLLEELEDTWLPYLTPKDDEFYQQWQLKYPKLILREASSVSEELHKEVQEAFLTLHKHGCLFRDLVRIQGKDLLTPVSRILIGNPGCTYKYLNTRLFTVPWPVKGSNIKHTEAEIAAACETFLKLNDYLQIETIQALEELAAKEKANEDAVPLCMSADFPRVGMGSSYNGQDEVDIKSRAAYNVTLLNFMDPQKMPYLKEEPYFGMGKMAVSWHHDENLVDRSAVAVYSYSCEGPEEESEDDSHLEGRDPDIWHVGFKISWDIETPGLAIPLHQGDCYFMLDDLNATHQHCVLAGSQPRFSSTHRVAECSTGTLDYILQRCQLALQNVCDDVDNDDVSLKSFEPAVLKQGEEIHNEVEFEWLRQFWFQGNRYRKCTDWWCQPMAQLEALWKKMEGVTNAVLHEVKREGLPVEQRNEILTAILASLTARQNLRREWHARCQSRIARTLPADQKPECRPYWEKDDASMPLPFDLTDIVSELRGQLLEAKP

Row | IC50 [nM] | SMILES
1 | < 1000 | N#C/C(=C\c1cc(O)c(O)c([N+](=O)[O-])c1)c1ncns1 [Compound 656, (E)-3-(3,4-dihydroxy-5-nitrophenyl)-2-(1,2,4-thiadiazol-5-yl)acrylonitrile]
2 | ~1000 | COc1cc(/C(O)=C(\C#N)c2cnccn2)cc([N+](=O)[O-])c1O [Compound 524]
3 | < 1000 | N#CC(=Cc1cc(O)c(O)c([N+](=O)[O-])c1)c1cccnn1 (stereo in doubt) [Compound 505, (E)-3-(3,4-dihydroxy-5-nitrophenyl)-2-(pyridazin-3-yl)acrylonitrile]
4 | < 1000 | N#C/C(C(=O)Nc1cnccn1)=C(/O)c1cc(O)c(O)c([N+](=O)[O-])c1 [Compound 722]
5 | > 1000 | N#C/C(=C\c1cc(O)c(O)c([N+](=O)[O-])c1)C(=O)c1cc(O)no1 [Compound 675, (E)-3-(3,4-dihydroxy-5-nitrophenyl)-2-(3-hydroxyisoxazole-5-carbonyl)acrylonitrile]
6 | > 1000 | N#C/C(=C\c1cc(O)c(O)c([N+](=O)[O-])c1)C(=O)NCc1ccccc1 [Compound 366]
7 | < 1000 | Cc1ccc(/C(C#N)=C/c2cc(O)c(O)c([N+](=O)[O-])c2)nc1 [Compound 502]
8 | < 1000 | N#C/C(C(=O)NCc1ccncn1)=C(/O)c1cc(O)c(O)c([N+](=O)[O-])c1 [Compound 673, (Z)-2-cyano-3-(3,4-dihydroxy-5-nitrophenyl)-3-hydroxy-N-(pyrimidin-4-ylmethyl)acrylamide]
9 | > 1000 | N#C/C(=C(/O)c1cc(O)c(O)c([N+](=O)[O-])c1)c1nc2ccccc2s1 [Compound 359]
10 | ~1000 | N#C/C(C(=O)c1cscn1)=C(/O)c1cc(O)c(O)c([N+](=O)[O-])c1 [Compound 711, (Z)-3-(3,4-dihydroxy-5-nitrophenyl)-3-hydroxy-2-(thiazole-4-carbonyl)acrylonitrile]

Continued, compound first:

Row | SMILES | IC50 [nM]
11 | N#C/C(=C\c1cc(O)c(O)c([N+](=O)[O-])c1)C(=O)Nc1nc2ccccc2s1 [Compound 333] | > 1000
12 | N#C/C(C(=O)NC1CC1)=C(/O)c1cc(O)c(O)c([N+](=O)[O-])c1 [Compound 692, (Z)-2-cyano-N-cyclopropyl-3-(3,4-dihydroxy-5-nitrophenyl)-3-hydroxyacrylamide] | < 1000
13 | N#C/C(=C(/N)c1cc(O)c(O)c([N+](=O)[O-])c1)c1cnc(C(=O)O)cn1 [Compound 697N] | < 1000
14 | N#C/C(=C\c1cc(O)c(O)c([N+](=O)[O-])c1)C(=O)c1nc2ccccc2[nH]1 [Compound 394, 2-(1H-benzo[d]imidazole-2-carbonyl)-3-(3,4-dihydroxy-5-nitrophenyl)acrylo-nitrile] | > 1000
15 | N#C/C(=C\c1cc(O)c(O)c([N+](=O)[O-])c1)C(=O)Nc1ccccc1 [Compound 318] | ~1000
16 | N#C/C(=C\c1cc(O)c(O)c([N+](=O)[O-])c1)c1nc(C(=O)O)cs1 [Compound 666, (E)-2-(1-cyano-2-(3,4-dihydroxy-5-nitrophenyl)vinyl)thiazole-4-carboxylic Acid] | < 1000
17 | COc1cc(/C(O)=C(\C#N)C(=O)NCc2ccncn2)cc([N+](=O)[O-])c1O [Compound 674] | > 1000
18 | N#CC(=Cc1cc(O)c(O)c([N+](=O)[O-])c1)c1ccc[n+]([O-])c1 (stereo in doubt) [Compound 518, (E)-3-(1-cyano-2-(3,4-dihydroxy-5-nitrophenyl)vinyl)pyridine 1-oxide] | > 1000
19 | N#C/C(=C\c1cc(O)c(O)c([N+](=O)[O-])c1)c1cccnc1 [Compound 319] | < 1000
20 | CC(NC(=O)/C(C#N)=C/c1cc(O)c(O)c([N+](=O)[O-])c1)C(=O)O (stereo not shown) [Compound 712] | ~1000
21 | N#C/C(=C\c1cc(O)c(O)c([N+](=O)[O-])c1)c1cncnc1 [Compound 522] | ~1000
22 | N#C/C(C(=O)NC1CC1)=C(/N)c1cc(O)c(O)c([N+](=O)[O-])c1 [Compound 692N, (Z)-3-amino-2-cyano-N-cyclopropyl-3-(3,4-dihydroxy-5-nitrophenyl)acrylamide] | > 1000
